# Entries after “also recorded” stand apart in the source; their conditions may differ. Where a name gives a salt, the structure may show the parent alone.
# Tests used:
# [1] = WO 01/34574, WO 2004/072049; cited from earlier work
# [2] = WO 2004/072049 (Form E vs Form B), WO 99/55683 (mesylate vs hydrochloride); cited from earlier work
# TGA hygroscopicity = assay type: physicochemical
# Source text: TGA confirmed that Form II can be considered non-hygroscopic.
# [3] = Relative thermodynamic stability of erlotinib free base crystal forms (prolonged stirring in 2-propanol; transitions on heating); assay type: physicochemical; conditions: recrystallization from 2-propanol with prolonged stirring; Forms I and III convert to Form II on heating
# Source text: Recrystallization from 2-propanol may initially give Form II with a small amount of another Form. However, prolonged stirring results in pure Form II.
# The hydrates of the invention can be converted into anhydrous forms and vice versa. For instance, any of the hydrates provides for the erlotinib free base Form II by heating.
# The transition of hydrate Form I into Form II proceeds via melting of Form I after which the melt recrystallizes to Form II. The transition of Form III into Form II occurs via the solid-solid transformation.
# [4] = XRPD under non-ambient conditions (humidity / elevated temperature); assay type: physicochemical; conditions: 30° C./10-90% RH and 50° C./75% RH
compound,measurement,setting,value
"C#Cc1cccc(Nc2ncnc3cc(OCCOC)c(OCCOC)cc23)c1 [Form B, erlotinib hydrochloride]",stability relative to other erlotinib hydrochloride polymorphs,[1],thermodynamically more stable than Form A
"C#Cc1cccc(Nc2ncnc3cc(OCCOC)c(OCCOC)cc23)c1 [Form E, erlotinib hydrochloride]",solubility relative to comparator form/salt,[2],higher solubility
"C#Cc1cccc(Nc2ncnc3cc(OCCOC)c(OCCOC)cc23)c1 [Form II, [6,7-bis(2-methoxyethoxy)-quinazolin-4-yl]-(3-ethynylphenyl)amine]",hygroscopicity,TGA hygroscopicity,non-hygroscopic
same,thermodynamic stability relative to other free base forms,[3],thermodynamically more stable Form; also recorded: thermodynamically most stable form
same,polymorphic transitions under humid conditions at elevated temperatures,[4],does not undergo polymorphic transitions
erlotinib mesylate [mesylate salt of erlotinib],solubility relative to comparator form/salt,[2],enhanced solubility compared to the hydrochloride
